Values quoted from earlier work in patent publication EP0279778B1, “New strain belonging to genus Thermus, new beta-galactosidase and process for producing same” (Research Development Corporation of Japan, priority 1987, dated 1988).

Legend:
[1] = test system: Thermus strain 4-1A β-galactosidase (Enzyme of Precedent 3); details: 56mM
[2] = test system: Bacillus stearothermophilus β-galactosidase (Enzyme of Precedent 5); details: 10mM

OC[C@H]1OC(O)[C@H](O)[C@@H](O)[C@@H]1O (stereo partly shown) [glucose]
Inhibition by reaction product [1]: 63% | Inhibition by reaction product [2]: 20%

OC[C@H]1OC(O)[C@H](O)[C@@H](O)[C@H]1O (stereo partly shown) [galactose]
Inhibition by reaction product [1]: 52% | Inhibition by reaction product [2]: 71%
